According to the supplement of paper PMC10307832:

Columns and labels:
Assay in all cases: relative viability (nuclei count vs DMSO), 5 days (fraction); higher = more cells survive
201T = test system: 201T
In short: (§1)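 One day after seeding in 1536-well plates, lung cancer cell lines were dosed by pin tool. Dosing was either single-drug or a fixed anchor-drug dose plus five library-drug doses (not always all listed) in √10 steps. After 5 days, nuclei were stained in one fix-and-stain step and counted on 4× images, and relative viability is the nuclei count of treated wells over that of vehicle wells, given as the median of duplicate plates.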

ABC-1 = test system: ABC-1
In short: as §1

BEN = test system: BEN
In short: as §1

HCC-366 = test system: HCC-366
In short: as §1

HCC-44 = test system: HCC-44
In short: as §1

HCC-78 = test system: HCC-78
In short: as §1

LK-2 = test system: LK-2
In short: as §1

LOU-NH91 = test system: LOU-NH91
In short: as §1

NCI-H1355 = test system: NCI-H1355
In short: as §1

NCI-H1650 = test system: NCI-H1650
In short: as §1

NCI-H1666 = test system: NCI-H1666
In short: as §1

NCI-H1734 = test system: NCI-H1734
In short: as §1

NCI-H1755 = test system: NCI-H1755
In short: as §1

NCI-H2009 = test system: NCI-H2009
In short: as §1

NCI-H2228 = test system: NCI-H2228
In short: as §1

NCI-H2347 = test system: NCI-H2347
In short: as §1

NCI-H2405 = test system: NCI-H2405
In short: as §1

NCI-H358 = test system: NCI-H358
In short: as §1

NCI-H520 = test system: NCI-H520
In short: as §1

NCI-H727 = test system: NCI-H727
In short: as §1

NCI-H838 = test system: NCI-H838
In short: as §1

SW 1573 = test system: SW 1573
In short: as §1

UMC-11 = test system: UMC-11
In short: as §1

SMILES: Cc1cnc(-c2cnc(NCCNc3ccc(C#N)cn3)nc2-c2ccc(Cl)cc2Cl)[nH]1 + CS(=O)(=O)N1CCN(Cc2cc3nc(-c4cccc5[nH]ncc45)nc(N4CCOCC4)c3s2)CC1 [Pictilisib] (partner 1 µM)
- relative viability (201T; first compound 0.08 µM): 0.713
- relative viability (201T; first compound 0.253 µM): 0.629
- relative viability (201T; first compound 0.8 µM): 0.724
- relative viability (201T; first compound 2.53 µM): 0.723
- relative viability (ABC-1; first compound 0.08 µM): 1
- relative viability (ABC-1; first compound 0.253 µM): 0.584
- relative viability (ABC-1; first compound 0.8 µM): 0.75
- relative viability (ABC-1; first compound 2.53 µM): 0.744
- relative viability (BEN; first compound 0.08 µM): 0.572
- relative viability (BEN; first compound 0.253 µM): 0.596
- relative viability (BEN; first compound 0.8 µM): 0.612
- relative viability (BEN; first compound 2.53 µM): 0.648
- relative viability (HCC-366; first compound 0.08 µM): 0.148
- relative viability (HCC-366; first compound 0.253 µM): 0.128
- relative viability (HCC-366; first compound 0.8 µM): 0.119
- relative viability (HCC-366; first compound 2.53 µM): 0.132
- relative viability (HCC-44; first compound 0.08 µM): 0.706
- relative viability (HCC-44; first compound 0.253 µM): 0.578
- relative viability (HCC-44; first compound 0.8 µM): 0.715
- relative viability (HCC-44; first compound 2.53 µM): 0.938
- relative viability (HCC-78; first compound 0.08 µM): 0.198
- relative viability (HCC-78; first compound 0.253 µM): 0.253
- relative viability (HCC-78; first compound 0.8 µM): 0.233
- relative viability (HCC-78; first compound 2.53 µM): 0.308
- relative viability (LK-2; first compound 0.08 µM): 0.646
- relative viability (LK-2; first compound 0.253 µM): 0.577
- relative viability (LK-2; first compound 0.8 µM): 0.618
- relative viability (LK-2; first compound 2.53 µM): 1.11
- relative viability (LOU-NH91; first compound 0.08 µM): 0.532
- relative viability (LOU-NH91; first compound 0.253 µM): 0.531
- relative viability (LOU-NH91; first compound 0.8 µM): 0.504
- relative viability (LOU-NH91; first compound 2.53 µM): 0.564
- relative viability (NCI-H1355; first compound 0.08 µM): 0.442
- relative viability (NCI-H1355; first compound 0.253 µM): 0.366
- relative viability (NCI-H1355; first compound 0.8 µM): 0.399
- relative viability (NCI-H1355; first compound 2.53 µM): 0.542
- relative viability (NCI-H1650; first compound 0.08 µM): 0.682
- relative viability (NCI-H1650; first compound 0.253 µM): 0.595
- relative viability (NCI-H1650; first compound 0.8 µM): 0.518
- relative viability (NCI-H1650; first compound 2.53 µM): 0.597
- relative viability (NCI-H1666; first compound 0.08 µM): 0.434
- relative viability (NCI-H1666; first compound 0.253 µM): 0.295
- relative viability (NCI-H1666; first compound 0.8 µM): 0.332
- relative viability (NCI-H1666; first compound 2.53 µM): 0.589
- relative viability (NCI-H1734; first compound 0.08 µM): 0.548
- relative viability (NCI-H1734; first compound 0.253 µM): 0.43
- relative viability (NCI-H1734; first compound 0.8 µM): 0.432
- relative viability (NCI-H1734; first compound 2.53 µM): 0.522
- relative viability (NCI-H1755; first compound 0.08 µM): 0.507
- relative viability (NCI-H1755; first compound 0.253 µM): 0.411
- relative viability (NCI-H1755; first compound 0.8 µM): 0.386
- relative viability (NCI-H1755; first compound 2.53 µM): 0.559
- relative viability (NCI-H2009; first compound 0.08 µM): 0.877
- relative viability (NCI-H2009; first compound 0.253 µM): 0.81
- relative viability (NCI-H2009; first compound 0.8 µM): 0.814
- relative viability (NCI-H2009; first compound 2.53 µM): 0.732
- relative viability (NCI-H2228; first compound 0.08 µM): 0.263
- relative viability (NCI-H2228; first compound 0.253 µM): 0.229
- relative viability (NCI-H2228; first compound 0.8 µM): 0.569
- relative viability (NCI-H2228; first compound 2.53 µM): 0.287
- relative viability (NCI-H2347; first compound 0.08 µM): 0.931
- relative viability (NCI-H2347; first compound 0.253 µM): 0.416
- relative viability (NCI-H2347; first compound 0.8 µM): 0.698
- relative viability (NCI-H2347; first compound 2.53 µM): 0.6
- relative viability (NCI-H2405; first compound 0.08 µM): 0.472
- relative viability (NCI-H2405; first compound 0.253 µM): 0.485
- relative viability (NCI-H2405; first compound 0.8 µM): 0.422
- relative viability (NCI-H2405; first compound 2.53 µM): 0.412
- relative viability (NCI-H358; first compound 0.08 µM): 0.301
- relative viability (NCI-H358; first compound 0.8 µM): 0.389
- relative viability (NCI-H358; first compound 2.53 µM): 0.264
- relative viability (NCI-H520; first compound 0.08 µM): 0.286
- relative viability (NCI-H520; first compound 0.253 µM): 0.336
- relative viability (NCI-H520; first compound 0.8 µM): 0.346
- relative viability (NCI-H520; first compound 2.53 µM): 0.497
- relative viability (NCI-H727; first compound 0.08 µM): 0.462
- relative viability (NCI-H727; first compound 0.253 µM): 0.259
- relative viability (NCI-H727; first compound 0.8 µM): 0.378
- relative viability (NCI-H727; first compound 2.53 µM): 0.435
- relative viability (NCI-H838; first compound 0.08 µM): 0.525
- relative viability (NCI-H838; first compound 0.253 µM): 0.552
- relative viability (NCI-H838; first compound 0.8 µM): 0.737
- relative viability (NCI-H838; first compound 2.53 µM): 1.19
- relative viability (SW 1573; first compound 0.08 µM): 0.487
- relative viability (SW 1573; first compound 0.253 µM): 0.492
- relative viability (SW 1573; first compound 0.8 µM): 0.552
- relative viability (SW 1573; first compound 2.53 µM): 0.327
- relative viability (UMC-11; first compound 0.08 µM): 0.871
- relative viability (UMC-11; first compound 0.253 µM): 0.777
- relative viability (UMC-11; first compound 0.8 µM): 0.496
- relative viability (UMC-11; first compound 2.53 µM): 0.859
